Measurements taken from patent US11591341B2 (ALIGOS THERAPEUTICS, INC., priority 2019, dated 2023).

What follows are compounds tested on HBV (assay: HBV-DNA Antiviral Assay Using HepG2.117 Cells (intracellular HBV DNA by qPCR)). Conditions: Hepatitis B virus, HepG2.117.
Assay type: cell-based, hepatitis B virus (genotype D)
Method: The following assay procedure describes the HBV antiviral assay, using HepG2.117 cells, which carry a stably integrated genotype D HBV genome under the control of a Tet-off promoter, and intracellular HBV DNA quantification as endpoint. Cell viability is assessed in parallel by measuring the intracellular ATP content using ATPlite (Perkin Elmer).
On day 0, HepG2.117 cells (which are maintained in routine cell culture with doxycycline present in the medium at a final concentration of 1 μg/mL) were seeded in 96-well plates (white with clear bottom) at a density of 2.0×10^4 cells/well (0.1 mL/well) in medium without doxycycline to induce pgRNA transcription and subsequent formation of HBV particles. The cells were incubated at 37° C. and 5% CO2.
On day 1, medium was removed from each well, the test articles were diluted in culture medium without doxcycyline and 100 μL was added to cell culture wells (9 concentrations, 4-fold dilution). For each plate, 6 untreated (merely DMSO) wells were included. The final concentration of DMSO in the culture medium was 2%. Each plate was prepared in duplicate (one for HBV DNA extraction, one for ATPlite measurement). The cells were incubated at 37° C. and 5% CO2 for 3 days.
On day 4, cell viability was assessed using ATPlite and cell lysates were prepared for HBV DNA extraction and subsequent quantification by qPCR.
Medium was removed from each well and 100 μL of 0.33% NP-40 in H2O was added to each well. Plates were sealed, incubated at 4° C. for 5 mins, vortexed extensively and centrifuged briefly. Next, 35 μL of lysate was added to 65 μL QuickExtract DNA Extraction Solution (Epicentre) in a PCR plate for each well. PCR plate was incubated at 65° C. for 6 mins, 98° C. for 2 mins and finally cooled to 4° C. HBV DNA was then quantified by qPCR with HBV-specific primers and probes as specified in Table 3 using the Bio-Rad SSOAdvanced Universal Probes Supermix on a CFX96 machine (Bio-Rad). The PCR cycle program consisted of 95° C. for 3 mins, followed by 40 cycles at 95° C. for 10 sec and 60° C. for 30 sec.
A DNA standard was prepared by dilution of an IDT gBlock corresponding to the amplicon with concentrations ranging from 10^2 to 10^8 copies/input (i.e. per 4 μL) and used to generate a standard curve by plotting Cq values vs. HBV DNA standard concentration. The quantity of HBV DNA in each sample was determined by interpolating from the standard curve.
Cell viability was calculated as follows: % Cell viability=(luminescence value of test sample)/(average luminescence value of 2% DMSO control)×100%. HBV DNA inhibition was calculated as follows: 100−(HBV DNA copy number of test sample)/(average HBV DNA copy number of 2% DMSO control)×100%. No normalization to entecavir was required due to the excellent dynamic window of this assay. The CC50, EC50 and EC90 values were determined by dose-response curves fitted by GraphPad Prism using “log (agonist) vs. response—Variable slope”.

Compound	EC50 [nM]
COc1ccc(CN2C/C=C\Cn3c(c4n(c3=O)CCN(C(=O)c3ccc(Br)c(Cl)c3)C4)C2=O)cc1 [Example 132, (11Z)-4-(4-bromo-3-chloro-benzoyl)-14-[(4-methoxyphenyl)methyl]-4,7,9,14-tetrazatricyclo[7.6.0.0^2,7]pentadeca-1,11-diene-8.15-dione]	100 to 500
O=C(NCc1ccccc1-n1cccn1)c1c2n(c(=O)n1-c1ccc(OCC(F)(F)F)cc1)CCN(C(=O)c1ccc(Br)c(Cl)c1)C2 [Example 231, 7-(4-bromo-3-chloro-benzoyl)-3-oxo-N[(2-pyrazol-1-ylphenyl)methyl]-2-[4-(2,2,2-trifluoroethoxy)phenyl]-6,8-dihydro-5H-imidazo[1,5-a]pyrazine-1-carboxamide]	< 100
O=C(NC1(c2ccccc2)CC1)c1c2n(c(=O)n1-c1ccccc1)CCN(C(=O)c1ccc(Br)c(Cl)c1)C2 [Example 31, 7-(4-bromo-3-chloro-benzoyl)-3-oxo-2-phenyl-N-(1-phenylcyclopropyl)-6,8-dihydro-5H-imidazo[1,5-a]pyrazine-1-carboxamide]	> 5000
C[C@H]1Cn2c(c(C(=O)NCc3ccccc3)n(-c3ccc(OC4CC4)cc3)c2=O)CN1C(=O)c1ccc(Br)c(Cl)c1 (racemic) [Example 302, rac-(6S)-N-benzyl-7-(4-bromo-3-chloro-benzoyl)-2-[4-(cyclopropoxy)phenyl]-6-methyl-3-oxo-6,8-dihydro-5H-imidazo[1,5-a]pyrazine-1-carboxamide]	100 to 500
C[C@@H](Oc1ccc([C@@H](C)NC(=O)c2c3n(c(=O)n2-c2ccc(OCC(F)(F)F)cc2)CCN(C(=O)c2ccc(Br)c(Cl)c2)C3)c(F)c1)C(N)=O (stereo in doubt) [Example 359, 7-(4-bromo-3-chloro-benzoyl)-3-oxo-N-[rac-(1R)-1-[2-fluoro-4-[rac-(1R)-2-amino-1-methyl-2-oxo-ethoxy]phenyl]ethyl]-2-[4-(2,2,2-trifluoroethoxy)phenyl]-6,8-dihydro-5H-imidazo[1,5-a]pyrazine-1-carboxamide]	500 to 5000
C[C@H](NC(=O)c1c2n(c(=O)n1-c1ccc(OC3CC3)cc1)CCN(C(=O)c1ccc(Br)c(Cl)c1)C2)c1ccccc1 (racemic) [Example 168, 7-(4-bromo-3-chloro-benzoy)-2-[4-(cyclopropoxy)phenyl]-3-oxo-N-[rac-(1S)-1-phenylethyl]-6,8-dihydro-5H-imidazo[1,5-a]pyrazine-1-carboxamide]	100 to 500
O=C(NCc1ccccc1)c1c2n(c(=O)n1-c1ccc(OC(F)F)cc1)CCN(C(=O)c1ccc(Cl)c(Cl)c1)C2 [Example 121, N-benzyl-7-(3,4-dichlorobenzoyl)-2-[4-(difluoromethoxy)phenyl]-3-oxo-6,8-dihydro-5H-imidazo[1,5-a]pyrazine-1-carboxamide]	500 to 5000
O=C(NCc1ccccc1)c1c2n(c(=O)n1-c1ccc(N3CCC3)cc1)CCN(C(=O)c1ccc(Br)c(Cl)c1)C2 [Example 390, 2-[4-(azetidin-1-yl)phenyl]-N-benzyl-7-(4-bromo-3-chloro-benzoyl)-3-oxo-6,8-dihydro-5H-imidazo[1,5-a]pyrazine-1-carboxamide]	100 to 500
COc1ccc(-n2c(C(=O)NCc3cc(OC)cc(OC)c3)c3n(c2=O)CCN(C(=O)c2ccc(Br)c(Cl)c2)C3)cc1 [Example 153, 7-(4-bromo-3-chloro-benzoyl)-N-[(3,5-dimethoxyphenyl)methyl]-2-(4-methoxyphenyl)-3-oxo-6,8-dihydro-5H-imidazo[1,5-a]pyrazine-1-carboxamide]	100 to 500
O=C(NCc1ccccc1)c1c2n(c(=O)n1-c1ccc(-c3ncc[nH]3)cc1)CCN(C(=O)c1ccc(Br)c(Cl)c1)C2 [Example 430, N-benzyl-7-(4-bromo-3-chloro-benozyl)-2-[4-(1H-imidazol-2-yl)phenyl]-3-oxo-6,8-dihydro-5H-imidazo[1,5-a]pyrazine-1-carboxamide]	500 to 5000
O=C(NCc1ccccc1-n1cc(F)cn1)c1c2n(c(=O)n1-c1ccc(OC3CC3)cc1)CCN(C(=O)c1ccc(Br)c(Cl)c1)C2 [Example 421, 7-(4-bromo-3-chloro-benzoyl)-2-[4-(cyclopropoxy)phenyl]-N-[[2-(4-fluoropyrazol-1-yl)phenyl]methyl]-3-oxo-6,8-dihydro-5H-imidazo[1,5-a]pyrazine-1-carboxamide]	< 100
COc1ccc(-n2c(C(=O)NCc3ccc(C#N)cc3)c3n(c2=O)CCN(C(=O)c2ccc(Cl)c(Cl)c2)C3)cc1 [Example 84, N-[(4-cyanophenyl)methyl]-7-(3,4-dichlorobenzoyl)-2-(4-methoxyphenyl)-3-oxo-6,8-dihydro-5H-imidazo[1,5-a]pyrazine-1-carboxamide]	> 5000
O=C(NCc1ccccc1-c1ccccn1)c1c2n(c(=O)n1-c1ccc(OC3CC3)cc1)CCN(C(=O)c1ccc(Br)c(Cl)c1)C2 [Example 369, 7-(4-bromo-3-chloro-benozyl)-2-[4-(cyclopropoxy)phenyl]-3-oxo-N-[[2-(2-pyridyl)phenyl]methyl]-6,8-dihydro-5H-imidazo[1,5-a]pyrazine-1-carboxamide]	< 100
CC1Cn2c(c(C(=O)NCc3ccccc3-n3cc(F)cn3)n(-c3ccc(OC4CC4)cc3)c2=O)CN1C(=O)c1ccc(Br)c(Cl)c1 (racemic) [Example 440, rac-(6S)-7-(4-bromo-3-chloro-benzoyl)-2-[4-(cyclopropoxy)phenyl]-N-[[2-(4-fluoropyrazol-1-yl)phenyl]methyl]-6-methyl-3-oxo-6,8-dihydro-5H-imidazo[1,5-a]pyrazine-1-carboxamide]	< 100
O=C1COc2cc(-n3c(C(=O)NCc4ccccc4)c4n(c3=O)CCN(C(=O)c3ccc(Br)c(Cl)c3)C4)ccc2N1 [Example 404, N-benzyl-7-(4-bromo-3-chloro-benzoyl)-3-oxo-2-(3-oxo-4H-1,4-benzoxazin-7-yl)-6,8-dihydro-5H-imidazo[1,5-a]pyrazine-1-carboxamide]	500 to 5000
CC(C)Oc1ccc(-n2c(C(=O)NCc3ccc(C(F)F)cc3)c3n(c2=O)CCN(C(=O)c2ccc(Br)c(Cl)c2)C3)cc1 [Example 243, 7-(4-bromo-3-chloro-benzoyl)-N-[[4-(difluoromethyl)phenyl]methyl]-2-(4-isopropoxyphenyl)-3-oxo-6,8-dihydro-5H-imidazo[1,5-a]pyrazine-1-carboxamide]	100 to 500
COc1ccc(-n2c(C(=O)NCc3ccccc3)c3n(c2=O)CCN(C(=O)c2cc4c(C)cccc4[nH]2)C3)cc1 [Example 55, N-benzyl-2-(4-methoxyphenyl)-7-(4-methyl-1H-indole-2-carbonyl)-3-oxo-6,8-dihydro-5H-imidazo[1,5-a]pyrazine-1-carboxamide]	500 to 5000
C[C@H](NC(=O)c1c2n(c(=O)n1-c1ccc(OCC(F)(F)F)cc1)CCN(C(=O)c1ccc(Br)c(Cl)c1)C2)c1ccccc1F (stereo in doubt) [Example 264, 7-(4-bromo-3-chloro-benzoyl)-3-oxo-N-[rac-(1S)-1-(2-fluorophenyl)ethyl]-2-[4-(2,2,2-trifluoroethoxy)phenyl]-6,8-dihydro-5H-imidazo[1,5-a]pyrazine-1-carboxamide]	500 to 5000
NC(=O)COc1ccc(CNC(=O)c2c3n(c(=O)n2-c2ccc(OC4CC4)cc2)CCN(C(=O)c2ccc(Br)c(Cl)c2)C3)c(F)c1 [Example 324, N-[[4-(2-amino-2-oxo-ethoxy)-2-fluoro-phenyl]methyl]-7-(4-bromo-3-chloro-benzoyl)-2-[4-(cyclopropoxy)phenyl]-3-oxo-6,8-dihydro-5H-imidazo[1,5-a]pyrazine-1-carboxamide]	100 to 500
COc1ccc(-n2c(C(=O)NC(c3ccccc3)C(C)C)c3n(c2=O)CCN(C(=O)c2ccc(Br)c(Cl)c2)C3)cc1 (racemic) [Example 160, 7-(4-bromo-3-chloro-benzoyl)-2-(4-methoxyphenyl)-3-oxo-N-[rac-(1S)-2-methyl-1-phenyl-propyl]-6,8-dihydro-5H-imidazo[1,5-a]pyrazine-1-carboxamide]	500 to 5000
O=C(NCc1ccccc1)c1c2n(c(=O)n1-c1ccc3occc3c1)CCN(C(=O)c1ccc(Cl)c(Cl)c1)C2 [Example 120, 2-(benzofuran-5-yl)-N-benzyl-7-(3,4-dichlorobenzoyl)-3-oxo-6,8-dihydro-5H-imidazo[1,5-a]pyrazine-1-carboxamide]	500 to 5000
